Source: the supplement of paper PMC10307832

How the values were obtained:
Test in all cases: relative viability (nuclei count vs DMSO), 5 days (fraction); higher = more cells survive
[1] = compound: CCC1=CN=CN=C1N2CCN(CC2)CC3=NC4=C(N3)C=C(C=C4)C(F)(F)F + COc1cccc2cc(-c3nc([C@H]4CC[C@H](C(=O)O)CC4)n4ncnc(N)c34)[nH]c12 [OSI-027] (partner 0.5 µM)
How it was run: (§1)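 Medians of duplicate plates are given as relative viability. That measure is the nuclei count in treated wells divided by the count in vehicle wells. Counts were taken on 4× images of lung cancer cell lines in 1536-well plates, 5 days after pin-tool dosing the day after seeding with one drug alone or a fixed anchor-drug dose plus five library-drug doses (not always all listed) in √10 steps.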

[2] = compound: CCn1c(-c2nonc2N)nc2cnc(Oc3cccc(NC(=O)c4ccc(OCCN5CCOCC5)cc4)c3)cc21 + Cc1cc(Nc2cc(N3CCN(C)CC3)nc(Sc3ccc(NC(=O)C4CC4)cc3)n2)n[nH]1 [Tozasertib] (partner 0.1 µM)
How it was run: as §1

[3] = compound: N=C1NC(=O)/C(=C/c2ccc(O)cc2)S1 [Mirin] + O=C(CCCCCCC(=O)Nc1ccccc1)NO [Vorinostat] (partner 1 µM)
How it was run: as §1

[4] = compound: N=C1NC(=O)/C(=C/c2ccc(O)cc2)S1 [Mirin] + C[C@@H](Oc1cc(-c2cnn(C3CCNCC3)c2)cnc1N)c1c(Cl)ccc(F)c1Cl [Crizotinib] (partner 1 µM)
How it was run: as §1

Cell Line	relative viability ([1]; first compound 0.04 µM)	relative viability ([1]; first compound 0.1265 µM)	relative viability ([1]; first compound 0.4 µM)	relative viability ([1]; first compound 1.265 µM)	relative viability ([1]; first compound 4 µM)	relative viability ([2]; first compound 0.04 µM)	relative viability ([2]; first compound 0.1265 µM)	relative viability ([2]; first compound 0.4 µM)	relative viability ([2]; first compound 1.265 µM)	relative viability ([2]; first compound 4 µM)	relative viability ([3]; first compound 0.25 µM)	relative viability ([3]; first compound 0.7906 µM)	relative viability ([3]; first compound 2.5 µM)	relative viability ([3]; first compound 7.906 µM)	relative viability ([3]; first compound 25 µM)	relative viability ([4]; first compound 0.25 µM)	relative viability ([4]; first compound 2.5 µM)	relative viability ([4]; first compound 7.906 µM)	relative viability ([4]; first compound 25 µM)	relative viability ([4]; first compound 0.7906 µM)
SW 900	0.529	0.543	0.539	0.421	0.476	0.625	0.706	0.637	0.488	0.431	0.608	0.482	0.423	0.583	0.401					
NCI-H1944	0.524	0.382	0.385	0.338	0.39	0.248	0.279	0.273	0.228	0.213	0.511	0.494	0.649	0.449	0.511	0.971	1.04	1.1	0.957	
NCI-H838	0.443	0.438	0.403	0.313	0.354	0.259	0.277	0.237	0.196	0.174	0.773	0.751	0.765	0.802	0.82	0.895	0.834	0.906	0.681	0.918
NCI-H1650	0.635	0.621	0.565		0.752	0.469	0.394	0.386	0.223	0.25	0.497	0.656	0.51	0.482	0.495	0.928	0.952	1.11	1.16	0.959
HCC-827	0.829	0.69	0.719		0.673	0.453	0.434	0.387	0.383	0.346	0.184	0.863	0.937	0.828	0.987	0.98	0.973	0.885	1.07	0.961
HCC-366	0.789	0.898	0.939	0.297	0.911	0.134	0.105	0.0696	0.0938	0.0791	0.391	0.203	0.404	0.244	0.413	0.464	0.44	0.443	0.413	0.62
HARA	0.317	0.456	0.392		0.529	0.11	0.0979	0.093	0.13	0.0876	0.537	0.533	0.567	0.597	0.502	1.06	1.05	0.995	1.14	1.15
NCI-H441	0.478	0.611	0.543	0.56	0.6	0.834	0.546		0.344	0.354	0.805	0.933	0.806	0.752	0.896	0.856	0.701	0.365	0.706	0.794
LXF-289	0.762	0.713	0.628	0.643	0.815	0.221	0.198	0.195	0.104	0.0834	0.727	0.818	0.713	0.8	0.836	0.808	0.787	0.899	0.945	0.87
RERF-LC-KJ	0.517	0.584	0.602	0.517	0.601	0.528	0.318	0.283	0.249	0.217	0.565	0.816	0.686	0.709	0.664	0.845	0.821	0.845	0.913	0.894
CAL-12T	0.481	0.691	0.545	0.577	0.627	0.433	0.297	0.28	0.186	0.189	0.622	0.868	0.886	0.828	0.697	0.667	0.619	0.573	0.639	0.509
COR-L 105	0.609	0.616	0.6	0.468	0.744	0.339	0.3	0.308	0.308	0.308	0.822	1.01	0.983	0.758	0.655	0.781	0.714	0.855	0.697	0.996
NCI-H2405	0.723	0.614	0.669		0.717	0.874	0.794	0.345	0.224	0.24	0.943		1.11	1.03	1.21	0.835	0.878	0.816	0.793	0.584
NCI-H2228	0.535	0.633	0.487	0.635	0.656	0.297	0.28	0.247	0.208	0.166	0.576	0.96	0.957	0.724	1	0.481	0.462	0.469	0.488	0.474
PC-14	0.871	0.814	0.809	0.766	0.82	0.691	0.47	0.422	0.326	0.321	0.798	0.638	0.729	0.719	0.746	0.873	0.887	0.945	1.07	0.893
NCI-H2087	0.584	0.56	0.385	0.451	0.5	0.252	0.243	0.218	0.152	0.142	0.661	0.748	0.729	0.573	0.774	0.898	0.849	0.771	1.16	1.08
A549																0.799	0.739	0.675	0.68	0.9
NCI-H2342	0.607	0.577	0.574	0.479	0.586	0.599	0.561	0.463	0.437	0.425	0.852	0.817	0.845		0.757					
NCI-H1623	0.399	0.39	0.431	0.437	0.432	0.473	0.396	0.369	0.346	0.457										
SW 1573	0.529	0.582	0.53	0.49	0.499	0.255	0.149	0.12	0.145	0.0839	0.867	0.772	0.765	0.308	0.56	0.681	0.838	0.86	0.624	0.643

Cell Line	relative viability ([1]; first compound 0.04 µM)	relative viability ([1]; first compound 0.1265 µM)	relative viability ([1]; first compound 0.4 µM)	relative viability ([1]; first compound 1.265 µM)	relative viability ([1]; first compound 4 µM)	relative viability ([2]; first compound 0.04 µM)	relative viability ([2]; first compound 0.1265 µM)	relative viability ([2]; first compound 0.4 µM)	relative viability ([2]; first compound 1.265 µM)	relative viability ([2]; first compound 4 µM)	relative viability ([3]; first compound 0.25 µM)	relative viability ([3]; first compound 0.7906 µM)	relative viability ([3]; first compound 2.5 µM)	relative viability ([3]; first compound 7.906 µM)	relative viability ([3]; first compound 25 µM)	relative viability ([4]; first compound 0.25 µM)	relative viability ([4]; first compound 2.5 µM)	relative viability ([4]; first compound 7.906 µM)	relative viability ([4]; first compound 25 µM)	relative viability ([4]; first compound 0.7906 µM)
NCI-H2085	0.825	0.608	0.728	0.328	0.724	0.961	0.8	0.733	0.633	0.538	0.805	0.842	0.853	0.922	0.804	0.798	0.878	0.704	0.923	0.853
NCI-H520	0.261	0.32	0.268	0.214	0.248	0.419	0.368	0.359	0.345	0.378	0.67	0.807	0.729	0.561	0.527	0.993	0.715	0.631	0.377	0.715
Calu-6																0.745	0.767	0.781	0.781	0.833
SK-LU-1	0.386	0.315	0.337	0.3	0.357	0.402	0.371	0.29	0.238	0.218	0.771	0.823	0.815	0.599	0.6	0.888	1.01	0.765	0.564	1.05
LCLC-103H	0.48	0.492	0.4	0.456	0.457	0.508	0.463	0.534	0.465	0.419	0.774	0.695	0.79	0.793	0.868	1.1	1.01	1.17	1.25	0.978
HCC-15	0.622	0.651	0.621	0.563	0.599	0.451	0.403	0.417	0.278	0.258	0.902	0.955	0.915	0.838	0.82	0.841	0.888	0.803	0.802	0.866
H3255	0.559	0.633	0.515	0.566	0.552	0.758	0.5	0.706	0.377	0.325	0.547	0.678	0.846	0.789	0.814	0.882	0.838	0.735	0.836	0.939
NCI-H1792	0.89	0.684	0.698	0.668	0.547											1.02	1.05	0.864	0.963	1.01
NCI-H1563	0.813	0.788	0.733	0.685	0.821											0.914	0.837	0.96	0.888	0.836
NCI-H647	0.671	0.855	0.557	0.413	0.462	0.338	0.267	0.29	0.146	0.0969	0.4	0.536	0.586	0.623	0.48	1.07	1.24	1.08	0.596	1.3
NCI-H2126	0.759	0.688	0.624	0.628	0.708	0.898	0.849	0.861		0.378	0.852	0.645	0.679	0.792	0.713	1.02	0.981	0.994	1.21	1.07
NCI-H727	0.531	0.618	0.581	0.423	0.533	0.609	0.666	0.586	0.478	0.502	0.912	1.27	1.24	1.23	1.19	1.1	0.799	1.04	0.659	0.98
NCI-H522	0.656	0.771	0.575	0.627	0.675	0.474	0.478	0.544	0.509	0.482	1.04	1.1	0.89	0.692	0.695					
NCI-H1299																0.991	0.947	0.997	1.08	1.05
NCI-H1648	0.259	0.278		0.278	0.314	0.415	0.833	0.88	0.713	0.547	0.421		0.601	0.424	0.299					
EBC-1																0.21	0.166	0.194	0.21	0.221
NCI-H1395	0.572	0.669	0.615	0.641	0.671	0.916	0.799	0.701	0.38	0.493	0.809		0.822	0.811	0.938					
IA-LM											0.975	1.01	1.01		1.17	0.813	0.744	0.849	0.981	0.916
NCI-H1703																0.603	0.757	0.523	0.493	0.519
NCI-H1793	0.22	0.301	0.25		0.259	0.332	0.473	0.341	0.307	0.293	0.907		0.672	0.949	0.832					
